Values quoted from earlier work, collected in PMC3372989, “Conformational Differences between Active Angiotensins and Their Inactive Precursors” (Acta Naturae, 2012).

What was measured:
[1] = system: receptors of Ang2; conditions: ref [4]
Source text: The oft-cited example of the structural differences between peptides found in their protein precursor and peptides in a free state is human angiotensinogen and its metabolites; i.e. , angiotensins 1, 2 and 3. Angiotensin 1 (Ang1) is a prohormone that consists of 10 amino acid residues and is produced from angiotensinogen as a result of the cleavage of the N-terminal peptide. […] Angiotensin 2 (Ang2) differs from angiotensin 1 by the absence of two C-terminal amino acid resi ...

[2] = background statement, no reference printed directly at the statement
[3] = doses needed for immunization (10–50 µg/mouse), even intramuscular and subcutaneous injections
Source text: The human and mouse angiotensins 1, as well as angiotensins 2 and 3, have identical amino acid sequences. […] Altogether, it makes angiotensins extremely inconvenient immunogens; however, their conjugation with Hsp70, an adjuvant protein from M. tuberculosis, allowed to overcome the immunological tolerance and to eliminate the toxicity. As a result, we ob ...

angiotensin 1
binding to the receptors of Ang2 [1]: incapable of binding to the receptors of Ang2 | physiological activity [2]: exhibits no physiological activity

angiotensin 2
fatal outcome on introduction into the body [3]: leads to a fatal outcome | physiological activity [2]: exhibit physiological activity
